Article PMC10304225, “In Vitro Cytotoxicity and In Vivo Antitumor Activity of Lipid Nanocapsules Loaded with Novel Pyridine Derivatives” (Pharmaceutics, 2023)
pIC50: −log10 of the molar value. Values after ≈ are worked out from the molar mass of the structure shown.

Legend:
[1] = Solubility measurement in various solvents (excess compound, 72 h shaking); type: physicochemical; conditions: for solubility in PB (pH 7.4): phosphate buffer pH 7.4
Method: The solubility of 2-amino-4-aryl-6-substituted pyridine-3,5-dicarbonitrile derivatives (S1–S4) in various solvents (methanol, ethanol, phosphate buffer, and water) was determined by adding an excess amount of each compound to 10 mL of each solvent in a sealed conical flask. The slurry was then agitated at 100 rpm in a temperature-controlled incubator shaker for 72 h to reach equilibrium. The undissolved particles were allowed to settle by keeping the saturated solution without agitation for another 2 h. The solution was then centrifuged at 10,000 rpm for 10 min. One mL samples of the clear supernatant was withdrawn, diluted with the suitable solvent, and finally analyzed spectrophotometrically at pre-determined wavelengths (Table S1).

MCF-7 cells = assay: In vitro cytotoxicity, MTT assay; type: cell-based, human; conditions: 48 h, read-out: IC50 against MCF-7
Method: (§1) A human lung cancer (A549) cell line, human breast adenocarcinoma (MCF-7), and normal MCF-10A human […] were obtained from VASCERA Co. (Vaccines Sera and Drugs; Cairo, Egypt). […] were cultured in Dulbecco’s modified Eagle’s medium (DMEM, Biowest, Nuaillé, France) supplemented with 10% fetal bovine serum, 100 U/mL penicillin/100 μg/mL streptomycin, and incubated under standard conditions (37 °C, 5% CO2).
(§2) The in vitro cytotoxicities of various pyridine derivatives loaded into LPNCs against A549 cells and MCF-7 cells were evaluated by the MTT assay. Briefly, 100 μL cell suspension equivalent to 1 × 10^4 cells/well was planted in a 96-well plate and incubated at 37 °C. At 24 h post-incubation, the cells were treated with 100 μL of serial dilutions of either free pyridine derivatives (S1–S4) or pyridine derivatives (S1–S4)-loaded LPNCs in a concentration range of 0.1 to 100 μM. The cells were further incubated at 37 °C for 48 h. The spent culture medium was then decanted, the cells were rinsed, 50 μL of MTT reagent (0.5 mg/mL) was added to each well, and the cells were incubated for 4 h at 37 °C. Finally, to dissolve the formazan crystals, DMSO solution (150 μL) was added to each well. The absorbance of each well was measured at 570 nm using a microplate reader (TEKAN Japan, Kawasaki, Japan). The percent cell viability was plotted against the tested compound concentration to determine the IC50 values.

A549 cells = assay: In vitro cytotoxicity, MTT assay; type: cell-based, human; conditions: 48 h, read-out: IC50 against A549
Method: as §1, §2

Swiss Albino mice [2] = assay: Acute toxicity study, single i.p. dose; type: in vivo
Method: Acute toxicity studies are carried out in order to evaluate the short-term negative effects of a test compound when administered in a single dose during a period of 24 h. Briefly, the maximum tolerated dose (100 mg/kg) of the test compound (S4), dissolved in 3% dimethyl sulfoxide, was injected intraperitoneally in a group of mice (n = 5). A control group (n = 5) was i.p. injected with an equivalent volume of 3% dimethyl sulfoxide. The mice were then observed for general behavior for 1 h post-treatment and then intermittently for 4 h and finally at 24 h. The mice were then monitored for up to 14 days after treatment for symptoms of toxicity or mortalities.

Swiss Albino mice [3] = assay: Median lethal dose (LD50), single i.p. injection; type: in vivo; conditions: for Number of animal dead: n=5, 24 h
Method: The median lethal dose (LD50) test was performed to determine the dose of a test substance that elicits 50% death in mice. Briefly, a total of 30 mice were categorized into 6 groups (n = 5). Each group was dosed with a single intraperitoneal injection of the test compound (S4) dissolved in 3% dimethyl sulfoxide. The screened doses ranged from 100 to 180 mg/kg. The animals were then monitored for 2 h and then at 4, 6, and 24 h for signs of toxicity. At the end of 24 h, the total number of deaths was recorded. The LD50 was then calculated using the following equation [27]: LD50=LD100−{Σ[Dose difference×Mean dead]}/Number of animals per group where LD100 is the lowest dose capable of killing 100% of animals.

[4] = system: Ehrlich ascites carcinoma (EAC) solid tumor; assay: In vivo antitumor activity in EAC solid tumor-bearing mice; conditions: 10 mg/kg i.p. every other day for 21 days
Method: Ehrlich ascites carcinoma (EAC) cells (1 × 10^6 cells) obtained from the National Cancer Institute (Cairo, Egypt) were injected intraperitoneally into the peritoneal cavity of Swiss Albino mice. On day 7 post tumor cell inoculation, ascites fluid was collected. EAC was diluted with saline to obtain a cell density of 25 × 10^6 cells/mL. Then, 200 μL of the cells were injected subcutaneously in the mice’s right flanks. Tumor growth was monitored post-inoculation, and the size of the tumor was measured with a Vernier caliper. Treatment protocols were initiated on day 8 post tumor inoculation, when the tumor was palpable. […]
The dose and route of administration of the test compound and the treatment regimen were established based on previously published reports. The antitumor efficacy of different treatment protocols was evaluated in terms of tumor size, percentage tumor growth inhibition (% TGI), median survival time (MST), and percentage increase in life span (% ILS) using the following equations [31, 32]:Tumor size (mm^3) = ½ (Length × Width^2) % TGI=1−Mean tumor volume of treated group/Mean tumor volume in control group×100 MST = (day of first death + day of last death)/2 %ILS=MSTtreated group/MSTcontrol group−1×100
In addition, body weight was assessed concurrently to determine any remarkable systemic toxicity.

[5] = Biochemical analysis of liver and kidney functions in serum; type: in vivo; conditions: EAC-bearing mice, 10 mg/kg i.p., last day of experiment
Method: On the last day of the experiment, 4 out 8 mice were euthanized, and blood samples were collected by cardiac puncture in dry Eppendorf tubes. Blood samples were set aside for 30 min at room temperature and the tubes were then centrifuged for 15 min at 2000× g to obtain serum. To assess possible hepatic damage, aspartate transaminase (AST) and alanine transaminase (ALT) activities in serum samples were assayed by using a commercial kit (Biodiagnostic, Cairo, Egypt) according to the method of Reitman and Frankel. In addition, serum creatinine level was quantified as an indicator for possible renal damage. The level of serum creatinine was analyzed by using a commercial kit that was purchased from Biodiagnostic (Cairo, Egypt) according to manufacturer instructions.

[6] = system: Ehrlich ascites carcinoma (EAC) solid tumor; assay: Histopathological examination of solid tumors (H&E); type: in vivo, mice; conditions: 10 mg/kg
Method: On the last day of the experiment, solid tumors were dissected from all mice and were fixed […] in formalin-alcohol for 48 h, dehydrated in an alcohol series, cleared in xylene, and embedded in paraffin. Sections (4–5 μm in thickness) were stained with hematoxylin and eosin (H&E). Slides were then imaged using a Universal Infinity System optical microscope (Olympus®, Tokyo, Japan) equipped with a computer-controlled digital camera. A histopathological analysis of the tumor sections was focused on finding a typical mitotic picture, neoplastic giant cells, and the extension of the necrotic area. Histopathological examinations were evaluated in a blinded way by a pathologist.

| Structure (SMILES) | solubility in ethanol [1] [mg/mL] | solubility in methanol [1] [mg/mL] | solubility in water [1] [mg/mL] | pIC50 (MCF-7 cells) | pIC50 (A549 cells) | solubility in PB (pH 7.4) [1] [mg/ml] | maximum tolerated dose (Swiss Albino mice [2]; mice, i.p.) [mg/kg] | acute toxicity observations (Swiss Albino mice [2]; up to 100 mg/kg i.p., monitored up to 14 days) | lethality and signs of toxicity (Swiss Albino mice [3]; 100 mg/kg i.p.) | Number of animal dead (Swiss Albino mice [3]; 100 mg/kg i.p.) | lethality (Swiss Albino mice [3]; 120 mg/kg and higher, i.p.) | Number of animal dead (Swiss Albino mice [3]; 120 mg/kg i.p.) | Number of animal dead (Swiss Albino mice [3]; 140 mg/kg i.p.) | Number of animal dead (Swiss Albino mice [3]; 160 mg/kg i.p.) | Number of animal dead (Swiss Albino mice [3]; 180 mg/kg i.p.) | tumor growth inhibition rate (TGI (%)) [4] [%] | ALT [5] [IU/L] | AST [5] [IU/L] | Creatinine [5] [mg/dL] | tumor section histology [6] |
| --- | --- | --- | --- | --- | --- | --- | --- | --- | --- | --- | --- | --- | --- | --- | --- | --- | --- | --- | --- | --- |
| CCNc1nc(N)c(C#N)c(-c2ccccc2)c1C#N [Compound S1] | 5.98 ± 0.230 (≈ 22.7 mM) | 21.76 ± 0.260 (≈ 82.6 mM) | 0.57 ± 0.021 (≈ 2.16 mM) | < 4.00 | < 4.00 |  |  |  |  |  |  |  |  |  |  |  |  |  |  |  |
| Cc1ccc(Nc2nc(N)c(C#N)c(-c3ccccc3)c2C#N)cc1 [Compound S2] | 13.82 ± 0.326 (≈ 42.5 mM) | 25.71 ± 0.323 (≈ 79 mM) | 1.25 ± 0.006 (≈ 3.84 mM) | < 4.00 | < 4.00 | 1.63 ± 0.005 |  |  |  |  |  |  |  |  |  |  |  |  |  |  |
| N#Cc1c(N)nc(N)c(C#N)c1-c1ccccc1 [Compound S3] | 18.86 ± 0.225 (≈ 80.2 mM) | 35.36 ± 0.203 (≈ 150 mM) | 0.99 ± 0.007 (≈ 4.21 mM) | < 4.00 | < 4.00 | 0.59 ± 0.010 |  |  |  |  |  |  |  |  |  |  |  |  |  |  |
| N#Cc1c(N)nc(Nc2ccccc2)c(C#N)c1-c1ccccc1 [Compound S4] | 18.56 ± 0.337 (≈ 59.6 mM) | 16.57 ± 0.315 (≈ 53.2 mM) | 0.58 ± 0.002 (≈ 1.86 mM) | < 4.00 | < 4.00 | 0.59 ± 0.001 | 100 | no behavioral abnormalities, toxicity symptoms, or mortalities were detected | not lethal but only induced drowsiness | 0 | lethal to animals | 5 | 5 | 5 | 5 | 73.42 | 20.50 ± 1.28 | 36.66 ± 1.87 | 0.54 ± 0.02 | loss of cellular architecture and tumor tissue compactness |
| O=c1[nH]cc(F)c(=O)[nH]1 [Compound 5-FU, 5-fluorouracil, reference compound] |  |  |  |  |  |  |  |  |  |  |  |  |  |  |  | 86.81 | 51.87 ± 1.29 | 74.23 ± 3.84 | 1.05 ± 0.15 | loss of cellular architecture and tumor tissue compactness |
